No end group written: not given here.

One series relates to mice or rats. The settings on record: in vivo.
For another series, the system named is human. The settings on record: human clinical trials; cited from earlier work.

Regarding VGDGGLFEKKL [Peptide P6, VGDGGLFEKKL], the “adverse effects associated with the full-length protein (CNTF)” value in the series with mice or rats is listed as “does not cause adverse effects associated with the full-length protein”. Also, the half-life in the series “in vivo” was more than 6 h.

B1: recombinant CNTF: recombinant full-length ciliary neurotrophic factor (protein, UniProt P26441 1-200, looked up)
chain: MAFTEHSPLTPHRRDLCSRSIWLARKIRSDLTALTESYVKHQGLNKNINLDSADGMPVASTDQWSELTEAERLQENLQAYRTFHVLLARLLEDQQVHFTPTEGDFHQAIHTLLLQVAAFAYQIEELMILLEYKIPRNEADGMPINVGDGGLFEKKLWGLKVLQELSQWTVRSIHDLRFISSHQTGIPARGSHYIANNKKM
modifications: full-length
notes: recombinant full-length ciliary neurotrophic factor
For B1, in the series with human, the adverse effects entry was “anorexia, skeletal muscle loss, hyperalgesia, severe cramps, and muscle pain”.

For orientation: half-life means the time needed for the level to fall by half in the phase considered.

Values taken from patent US9737587B2, “Treatment of autism spectrum disorders with ciliary neurotrophic factor peptide mimetic” (The Research Foundation for Mental Hygiene, Inc., priority 2014, dated 2017).
